{"source": "patent US7637980B2", "about": "“Method of increasing photosynthesis in plants comprising an exposure thereof to lipochitooligosaccharides and compositions therefor” (McGill University, priority 1999, dated 2009)", "assay_type_in_all_cases": "in vivo", "key": {"apple (cv Empire)": {"tested_on": "apple (cv Empire)", "assay": "Photosynthesis of field-grown apple after LCO spray", "description": "(§1) These experiments were conducted at the horticultural research facility of McGill University, Ste-Anne-de-Bellevue, Quebec, Canada during July 2000. LCO of different concentrations (10^−8, and 10^−10M) were prepared as described above. Branches of apple (cv Empire) and Grapes (cv De Chaunac) were sprayed with LCO and the photosynthesis was observed every 24 h for five days with a Li-Cor 6400 portable photosynthesis system (Li-Cor Inc., USA). Each treatment was applied to three branches from the same plant. Care was taken to ensure that the branches were on the same level and orientation. Part of each branch was sprayed with LCO and the remaining part served as a control. The control portion of the branch was sprayed with distilled water containing the same amount of Tween 20 as the LCO treatment solution. Observations were taken on 15 leaves per replicate for each treatment. For both apple and grape the entire procedure was repeated twice on two different plants."}, "soybean (cv Bayfield)": {"tested_on": "soybean (cv Bayfield)", "assay": "Leaf area and shoot dry weight of soybean after LCO spray, greenhouse", "settings": "seven days after treatment", "description": "Soybean (cv Bayfield) seeds were surface sterilized with 2% sodium hypochlorite for 3-4 minutes, washed with several changes of sterile distilled water and germinated in plastic trays containing sterile vermiculite. Seedlings at the two-leaf stage, about seven days of planting, were transplanted into 15 cm plastic pots containing promix (Premier Brands Inc., New Rochelle, N.Y., USA). Pots were placed in a greenhouse maintained at 25±2° C. with a day/night cycle of 16/8 h. Plants were watered as required.\n(§2) Concentrations of LCO (10^−6 M-10^−12 M) were made with distilled water containing 0.02% Tween 20. A control treatment, containing 0.02% Tween 20, but no LCO was also applied. Since the rates of growth and development differed among the plant species used in the experiments, spray treatment was conducted at different times after planting In general, the spray was applied when the plants were big enough to allow easy measurements of leaf photosynthetic rates. The following are the ages of the plants when the sprays were conducted: soybean 21 days after planting (DAP), corn 25 DAP, rice 45 DAP, melon (35 DAP) and canola 30 DAP. The plants were sprayed with LCO solutions until dripping. The sprays were applied with an atomizer (Nalgene, USA). Each plant required 2-3 mL of spray solution. Each treatment was replicated at least five times and organized on the green house bench in a randomized complete block design. Each experiment (with each crop species) was repeated at least twice.\n(§3) Photosynthesis was recorded every 24 h using a Li-Cor 6400 portable photosynthesis system (Li-Cor Inc., Lincoln, Neb., USA) for 6 days. In the case of soybean the photosynthesis in the second nodal leaf from the top was recorded while in the other species used in the photosynthetic rate was measured for the top-most fully expanded leaf. Soybean plants were harvested after seven days of LCO treatment and dried at 80° C. for 48 h. Data were analyzed with the Statistical Analysis System (SAS Inc., N.C., USA). Percent increase in photosynthesis over the control was calculated."}, "[1]": {"tested_on": "canola (Brassica napus cv Springfield)", "assay": "Photosynthesis of canola after LCO spray, greenhouse", "description": "(§4) Seeds of rice (Oryza sativa cv Cypress), canola (Brassica napus cv Springfield), corn (Zea mays cv Pioneer 3921) and melon (Cucumis melo cv Nova) were surface sterilized with 2% sodium hypochlorite for 3-4 min, washed with several changes of sterile distilled water and planted in plastic pots (15 cm dia) containing promix (Premier Brands Inc., New Rochelle, N.Y., USA).\nas §2, §3"}, "[2]": {"tested_on": "melon (Cucumis melo cv Nova)", "assay": "Photosynthesis of melon after LCO spray, greenhouse", "description": "as §4, §2, §3"}, "corn (Pioneer 3921)": {"tested_on": "corn (Pioneer 3921)", "assay": "Photosynthesis of field-grown corn after LCO spray", "description": "Single row corn plots (Pioneer 3921) were established during the 1999 and 2000 cropping seasons. The rows were 75 cm apart and their was an average of 20 cm between plants. The plants were sprayed at 40 DAP. Photosynthetic rates were recorded each day for 5 days after spray application. However, multiple sprays of LCO on corn were not possible due to limitations of LCO supplies, and because only single row plots were used yields were not recorded. As with the indoor experiments, photosynthetic readings were taken every day for five days after the application of LCO. For soybean additional developmental and agronomic data were collected. The first harvest was conducted at 25 days after the first spray treatment. Five plants were harvested from each plot and the following growth variables were analyzed: plant height, number of branches, number of leaves, leaf area, number of flower clusters, number of pods, number of nodules, dry weights of leaves, stem and roots. The final harvest was conducted after physiological maturity of the plants (Fehr et al., 1971); at this time the remaining fifteen treated plants from each plot were harvested and data on number of branches, number of pods, number of seeds and grain yield per plant was collected."}, "Grapes (cv De Chaunac)": {"tested_on": "Grapes (cv De Chaunac)", "assay": "Photosynthesis of field-grown grape after LCO spray", "description": "as §1"}, "soybean": {"tested_on": "soybean", "assay": "Foliar spray of LCO on yield of soybean (2000 cropping season)", "settings": "for Seed yield/plant / Seed yield: 0% seed moisture; for Seed yield: assuming 500,000 plants per ha", "text": "LCO 10^−6 M improved the yield by about 60%. The increase in yield was due to the increase in the number of pods/plant. The 100-seed weight was not increased by LCO spray during the 2000 field season. Also of note, the LCO application in the field experiments in year 2000 were by spraying whole plots, as opposed to individual plants (1999). Thus, the LCO effects described in the present invention are also observable when using large production application methods."}}, "data": [{"substance": "Nod Bj V (C18:1, MeFeu)", "values": [{"measurement": "Ci", "setting": "apple (cv Empire)", "result": "without any effect"}, {"measurement": "stomatal conductance", "setting": "apple (cv Empire)", "result": "increases"}, {"measurement": "transpiration", "setting": "apple (cv Empire)", "result": "increased"}, {"measurement": "photosynthetic rate", "setting": "apple (cv Empire); 10^−8 M LCO, five days after treatment", "result": 14.1, "unit": "μmol CO2 m^−2s^−1"}, {"measurement": "Leaf area", "setting": "soybean (cv Bayfield); 10^−6 M", "result": 223.6, "unit": "cm^2"}, {"measurement": "Shoot dry weight", "setting": "soybean (cv Bayfield); 10^−6 M", "result": 1065.8, "unit": "mg"}, {"measurement": "Leaf area", "setting": "soybean (cv Bayfield); 10^−7 M", "result": 193.6, "unit": "cm^2"}, {"measurement": "Shoot dry weight", "setting": "soybean (cv Bayfield); 10^−7 M", "result": 1135.2, "unit": "mg"}, {"measurement": "Leaf area", "setting": "soybean (cv Bayfield); 10^−8 M", "result": 217.6, "unit": "cm^2"}, {"measurement": "Shoot dry weight", "setting": "soybean (cv Bayfield); 10^−8 M", "result": 1095.7, "unit": "mg"}, {"measurement": "Leaf area", "setting": "soybean (cv Bayfield); 10^−9 M", "result": 194.3, "unit": "cm^2"}, {"measurement": "Shoot dry weight", "setting": "soybean (cv Bayfield); 10^−9 M", "result": 999.9, "unit": "mg"}, {"measurement": "Leaf area", "setting": "soybean (cv Bayfield); 10^−10 M", "result": 195.3, "unit": "cm^2"}, {"measurement": "Shoot dry weight", "setting": "soybean (cv Bayfield); 10^−10 M", "result": 1012.3, "unit": "mg"}, {"measurement": "Leaf area", "setting": "soybean (cv Bayfield); 10^−11 M", "result": 202.6, "unit": "cm^2"}, {"measurement": "Shoot dry weight", "setting": "soybean (cv Bayfield); 10^−11 M", "result": 931.6, "unit": "mg"}, {"measurement": "Leaf area", "setting": "soybean (cv Bayfield); 10^−12 M", "result": 230.3, "unit": "cm^2"}, {"measurement": "Shoot dry weight", "setting": "soybean (cv Bayfield); 10^−12 M", "result": 1060.8, "unit": "mg"}, {"measurement": "shoot dry weights vs control plants", "setting": "soybean (cv Bayfield); p<0.05", "result": "higher"}, {"measurement": "leaf areas vs control plants", "setting": "soybean (cv Bayfield); p=0.09", "result": "only increased numerically"}, {"measurement": "intercellular CO2 concentration", "setting": "[1]", "result": "unaffected"}, {"measurement": "stomatal conductance", "setting": "[1]", "result": "increases"}, {"measurement": "transpiration", "setting": "[1]", "result": "increases"}, {"measurement": "increase in photosynthesis", "setting": "[1]; in general", "result": "10-20%"}, {"measurement": "intercellular CO2 concentration", "setting": "[2]", "result": "unaffected"}, {"measurement": "stomatal conductance", "setting": "[2]", "result": "increases"}, {"measurement": "transpiration", "setting": "[2]", "result": "increases"}, {"measurement": "increase in photosynthesis", "setting": "[2]; in general", "result": "10-20%"}, {"measurement": "Ci", "setting": "corn (Pioneer 3921); field grown plants", "result": "no such effect"}, {"measurement": "increase of photosynthetic rate, maximum", "setting": "corn (Pioneer 3921); field, two days after treatment application", "result": "approximately 10%"}, {"measurement": "stomatal conductance", "setting": "Grapes (cv De Chaunac); 10^−10 M, three days after treatment", "result": "increase"}, {"measurement": "photosynthetic rates", "setting": "Grapes (cv De Chaunac); greatest three days after treatment with 10^−10 M", "result": "increases"}, {"measurement": "100-seed weight", "setting": "soybean; LCO 10^−6 M", "result": 17.4, "unit": "g"}, {"measurement": "Pod weight/plant", "setting": "soybean; LCO 10^−6 M", "result": 31.4, "unit": "g"}, {"measurement": "Pods/plant", "setting": "soybean; LCO 10^−6 M", "result": 46.8}, {"measurement": "Seeds/plant", "setting": "soybean; LCO 10^−6 M", "result": 118.0}, {"measurement": "Seed yield/plant", "setting": "soybean; LCO 10^−6 M", "result": 21.0, "unit": "g"}, {"measurement": "Seed yield", "setting": "soybean; LCO 10^−6 M", "result": 10.5, "unit": "t/ha"}, {"measurement": "100-seed weight", "setting": "soybean; LCO 10^−8 M", "result": 17.8, "unit": "g"}, {"measurement": "Pod weight/plant", "setting": "soybean; LCO 10^−8 M", "result": 24.1, "unit": "g"}, {"measurement": "Pods/plant", "setting": "soybean; LCO 10^−8 M", "result": 39.1}, {"measurement": "Seeds/plant", "setting": "soybean; LCO 10^−8 M", "result": 96.4}, {"measurement": "Seed yield/plant", "setting": "soybean; LCO 10^−8 M", "result": 16.2, "unit": "g"}, {"measurement": "Seed yield", "setting": "soybean; LCO 10^−8 M", "result": 8.1, "unit": "t/ha"}, {"measurement": "100-seed weight", "setting": "soybean; LCO 10^−10 M", "result": 18.1, "unit": "g"}, {"measurement": "Pod weight/plant", "setting": "soybean; LCO 10^−10 M", "result": 29.1, "unit": "g"}, {"measurement": "Pods/plant", "setting": "soybean; LCO 10^−10 M", "result": 47.7}, {"measurement": "Seeds/plant", "setting": "soybean; LCO 10^−10 M", "result": 117.7}, {"measurement": "Seed yield/plant", "setting": "soybean; LCO 10^−10 M", "result": 21.8, "unit": "g"}, {"measurement": "Seed yield", "setting": "soybean; LCO 10^−10 M", "result": 10.9, "unit": "t/ha"}, {"measurement": "100-seed weight", "setting": "soybean; LCO spray, 2000 field season", "result": "not increased"}]}]}
